Assay results reported in article PMC6934184, “Selective DNA-PKcs inhibition extends the therapeutic index of localized radiotherapy and chemotherapy” (The Journal of Clinical Investigation, 2019).

Target: T1, HIPK2 (Homo sapiens, UniProt Q9H2X6)
T1 construct: purchased Thermo Fisher Scientific (Life Technologies) SelectScreen
Assay: SelectScreen Z'LYTE
Type: biochemical
Summary of the method: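 Compound tested in SelectScreen activity assays, Z'LYTE for CSF1R, CDK1/cyclin B and MAP2K6 and Adapta for CAMK1. ATP for CAMK1 was listed as 10, and Km app was used for CSF1R. Results are expressed in percent.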

T1 sequence (Q9H2X6 whole entry): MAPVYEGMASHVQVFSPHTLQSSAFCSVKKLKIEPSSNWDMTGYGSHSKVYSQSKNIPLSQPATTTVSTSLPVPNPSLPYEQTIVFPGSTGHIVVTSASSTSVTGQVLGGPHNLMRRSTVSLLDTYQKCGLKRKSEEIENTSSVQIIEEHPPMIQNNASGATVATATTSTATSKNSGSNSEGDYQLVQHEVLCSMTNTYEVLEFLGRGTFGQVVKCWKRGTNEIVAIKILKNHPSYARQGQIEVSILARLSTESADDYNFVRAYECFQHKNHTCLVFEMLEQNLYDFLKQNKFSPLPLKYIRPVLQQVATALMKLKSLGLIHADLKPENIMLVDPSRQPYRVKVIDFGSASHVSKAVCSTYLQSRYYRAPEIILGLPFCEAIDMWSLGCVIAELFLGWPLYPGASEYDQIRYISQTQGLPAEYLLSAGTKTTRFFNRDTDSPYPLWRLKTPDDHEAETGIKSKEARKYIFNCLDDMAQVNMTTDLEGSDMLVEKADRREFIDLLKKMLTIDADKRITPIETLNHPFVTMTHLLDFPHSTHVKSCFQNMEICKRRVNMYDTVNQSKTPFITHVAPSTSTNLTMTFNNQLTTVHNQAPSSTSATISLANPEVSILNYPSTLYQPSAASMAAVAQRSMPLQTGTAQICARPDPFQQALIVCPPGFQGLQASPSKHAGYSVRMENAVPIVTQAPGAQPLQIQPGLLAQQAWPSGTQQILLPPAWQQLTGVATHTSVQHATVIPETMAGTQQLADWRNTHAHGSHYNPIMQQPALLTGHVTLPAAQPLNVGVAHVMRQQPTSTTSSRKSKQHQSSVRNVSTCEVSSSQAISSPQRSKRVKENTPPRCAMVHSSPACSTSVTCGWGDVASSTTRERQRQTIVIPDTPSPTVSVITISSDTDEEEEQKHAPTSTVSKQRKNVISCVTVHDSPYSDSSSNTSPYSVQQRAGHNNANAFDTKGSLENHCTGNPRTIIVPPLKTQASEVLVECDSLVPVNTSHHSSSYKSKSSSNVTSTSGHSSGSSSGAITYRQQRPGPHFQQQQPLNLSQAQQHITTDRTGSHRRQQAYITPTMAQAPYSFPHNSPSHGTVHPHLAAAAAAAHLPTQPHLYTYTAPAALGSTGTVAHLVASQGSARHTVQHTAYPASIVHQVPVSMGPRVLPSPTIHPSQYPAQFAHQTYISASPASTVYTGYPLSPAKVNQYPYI

In the case of `CN(C(=O)CN1CCOCC1)c1ccc2sc3c(-c4cccc5c(=O)cc(N6CC7CCC(C6)O7)oc45)cccc3c2c1` [NU5455], the inhibition at 1 µM is reported as 7.8%.
